The values below come from ChEMBL document CHEMBL1221200, “Diarylquinolines target subunit c of mycobacterial ATP synthase” (Nat Chem Biol, 2007).

Molecules are shown by their SMILES. Converted amounts (≈) assume the structure as drawn. The source made the active and inactive calls.

For test [1], the system named is Mycobacterium tuberculosis. Description: Antimicrobial activity against Mycobacterium tuberculosis by alamar blue assay. It counts as functional. In general terms: The colour change of resazurin is a common sign of viable cells or microbes.
Test [2] relates to Mycolicibacterium smegmatis. Description: Antimicrobial activity against Mycobacterium smegmatis ATCC 607 by alamar blue assay. It counts as functional.
Test [3] deals with Putative uncharacterized protein atpE (Mycolicibacterium smegmatis, UniProt Q5TIX5). Description: Inhibition of Mycobacterium smegmatis ATCC 607 ATP synthase subunit c-mediated ATP synthesis after 60 mins by luminometry.
Putative uncharacterized protein atpE, sequence (Q5TIX5 whole entry): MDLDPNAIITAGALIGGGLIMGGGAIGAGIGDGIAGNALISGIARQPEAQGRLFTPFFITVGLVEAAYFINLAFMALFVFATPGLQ
For test [4], the target named is ATP synthase subunit alpha (Bacillus sp.) (UniProt P09219). Description: Binding affinity to Bacillus PS3 ATP synthase subunit alpha by mass spectroscopy.
ATP synthase subunit alpha (Bacillus sp.), sequence (P09219 whole entry): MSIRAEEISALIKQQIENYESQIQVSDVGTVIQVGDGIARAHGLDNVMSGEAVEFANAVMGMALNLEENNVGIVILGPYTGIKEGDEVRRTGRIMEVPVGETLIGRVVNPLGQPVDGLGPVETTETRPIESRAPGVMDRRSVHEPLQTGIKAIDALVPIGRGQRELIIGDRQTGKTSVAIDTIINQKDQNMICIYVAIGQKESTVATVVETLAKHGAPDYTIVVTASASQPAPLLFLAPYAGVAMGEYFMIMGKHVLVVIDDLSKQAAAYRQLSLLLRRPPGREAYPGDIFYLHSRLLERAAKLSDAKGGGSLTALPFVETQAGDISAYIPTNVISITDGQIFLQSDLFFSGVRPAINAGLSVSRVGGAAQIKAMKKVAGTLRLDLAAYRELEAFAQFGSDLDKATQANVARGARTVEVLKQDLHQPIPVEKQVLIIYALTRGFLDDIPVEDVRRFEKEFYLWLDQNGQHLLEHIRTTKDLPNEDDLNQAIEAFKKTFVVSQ
The test system of test [5] is Mycobacterium tuberculosis. Description: Antimicrobial activity against wild-type Mycobacterium tuberculosis expressing ATP synthase AtpE assessed as growth inhibition in early log-phase by 7H10 agar dilution method. It counts as functional, organism-based. Background: In agar dilution the substance is mixed into plates at graded concentrations.
The target of test [6] is ATP synthase subunit c (Mycobacterium tuberculosis (strain CDC 1551 / Oshkosh)) (UniProt P9WPS0). In words: Inhibition of Mycobacterium tuberculosis ATP synthase subunit c-mediated ATP synthesis after […] by luminometry.
ATP synthase subunit c (Mycobacterium tuberculosis (strain CDC 1551 / Oshkosh)), sequence (P9WPS0 whole entry): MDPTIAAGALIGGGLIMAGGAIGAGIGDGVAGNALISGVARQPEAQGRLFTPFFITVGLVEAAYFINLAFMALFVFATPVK
The subject of test [7] is Mycolicibacterium smegmatis. In words: Binding affinity to Mycobacterium smegmatis ATCC 607 ATP synthase subunit beta by mass spectroscopy.
The target of test [8] is ATP synthase subunit beta (Bacillus sp.) (UniProt P07677). Description: Binding affinity to Bacillus PS3 ATP synthase subunit beta by mass spectroscopy.
ATP synthase subunit beta (Bacillus sp.), sequence (P07677 whole entry): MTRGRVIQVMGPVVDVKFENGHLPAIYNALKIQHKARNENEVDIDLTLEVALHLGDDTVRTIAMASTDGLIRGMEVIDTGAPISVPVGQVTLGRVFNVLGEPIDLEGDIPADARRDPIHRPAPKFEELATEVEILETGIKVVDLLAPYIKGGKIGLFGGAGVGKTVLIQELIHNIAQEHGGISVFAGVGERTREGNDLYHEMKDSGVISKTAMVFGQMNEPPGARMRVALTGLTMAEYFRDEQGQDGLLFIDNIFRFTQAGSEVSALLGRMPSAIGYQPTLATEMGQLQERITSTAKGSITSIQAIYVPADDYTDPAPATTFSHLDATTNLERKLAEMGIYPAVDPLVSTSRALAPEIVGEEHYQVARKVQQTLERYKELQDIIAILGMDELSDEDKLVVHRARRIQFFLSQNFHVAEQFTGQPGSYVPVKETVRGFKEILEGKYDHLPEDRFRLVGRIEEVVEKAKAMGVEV
The test system of test [9] is Mycolicibacterium smegmatis. In words: Binding affinity to Mycobacterium smegmatis ATCC 607 ATP synthase subunit alpha by mass spectroscopy.
For test [10], the system named is Mycolicibacterium smegmatis. Description: Antimicrobial activity against Mycobacterium smegmatis expressing ATP synthase AtpE D32V mutant protein by 7H9 agar dilution method. The test is classed as functional.
In test [11] the test system is Mycolicibacterium smegmatis. In words: Ratio of MIC for Mycobacterium smegmatis isolate R09 expressing ATP synthase AtpE D32V mutant protein to MIC for wild type Mycobacterium smegmatis. The test is classed as functional.
In test [12] the test system is Mycolicibacterium smegmatis. Description: Antimicrobial activity against Mycobacterium smegmatis isolate R09 expressing ATP synthase AtpE D32V mutant protein by 7H10 agar dilution method. The test is classed as functional.
Test [13] deals with Mycobacterium tuberculosis. Description: Antimicrobial activity against Mycobacterium tuberculosis H37Rv by 7H9 broth dilution method. It counts as functional. For orientation: Dilution methods test growth across graded concentrations, often in twofold steps.
For test [14], the system named is Mycolicibacterium smegmatis. Description: Ratio of MIC for Mycobacterium smegmatis expressing ATP synthase AtpE D32V mutant protein to MIC for wild type Mycobacterium smegmatis ATCC 607 expressing vector pSD5. It counts as functional.
In test [15] the test system is Mycolicibacterium smegmatis. Description: Antimicrobial activity against Mycobacterium smegmatis ATCC 607 expressing ATP synthase AtpE subunit by 7H9 agar dilution method. It counts as functional.
In test [16] the test system is Mycolicibacterium smegmatis. In words: Antimicrobial activity against wild-type Mycobacterium smegmatis ATCC 607 expressing ATP synthase AtpE subunit by 7H10 agar dilution method. It counts as functional.
Test [17] in a line: Binding affinity to Bacillus PS3 ATP synthase subunit c A63P mutant. Set-up: species or system Bacillus sp. PS3.
Test [18] relates to Mycolicibacterium smegmatis. In words: Antimicrobial activity against wild type Mycobacterium smegmatis ATCC 607 expressing vector pSD5 by 7H10 agar dilution method. It counts as functional.
For test [19], the system named is Mycolicibacterium smegmatis. In words: Antimicrobial activity against wild type Mycobacterium smegmatis ATCC 607 expressing vector pSD5 by 7H9 agar dilution method. The test is classed as functional.
In test [20] the test system is Mycobacterium tuberculosis. Description: Antimicrobial activity against Mycobacterium tuberculosis H37Rv by […] dilution method. It counts as functional.
The subject of test [21] is Mycolicibacterium smegmatis. In words: Antimicrobial activity against wild type Mycobacterium smegmatis ATCC 607 by 7H9 agar dilution method. The test is classed as functional.
In test [22] the test system is Mycolicibacterium smegmatis. Description: Antimicrobial activity against Mycobacterium smegmatis expressing ATP synthase AtpE D32V mutant protein by 7H10 agar dilution method. It counts as functional.
Test [23] concerns Mycolicibacterium smegmatis. In words: Antimicrobial activity against Mycobacterium smegmatis isolate R09 expressing ATP synthase AtpE D32V mutant protein by 7H9 agar dilution method. The test is classed as functional.
The next test has as its target ATP synthase subunit c (Bacillus sp., UniProt P00845). In words: Binding affinity to Bacillus PS3 ATP synthase subunit c. Set-up: species or system Bacillus sp. PS3.
Test [24] relates to Mycolicibacterium smegmatis. In words: Antimicrobial activity against wild type Mycobacterium smegmatis ATCC 607 by 7H10 agar dilution method. It counts as functional.

ATP synthase subunit c, sequence (P00845 whole entry): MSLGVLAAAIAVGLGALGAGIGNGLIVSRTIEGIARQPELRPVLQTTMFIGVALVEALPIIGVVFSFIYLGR

In general, MIC90 refers to the lowest concentration that inhibits either 90% of growth or 90% of the strains tested, depending on the study. Turning to `COc1nc2ccc(Br)cc2cc1[C@H](c1ccccc1)[C@@](O)(CCN(C)C)c1cccc2ccccc12` (racemic; 1d), the MIC90 in [1] is 1.8 µg/mL (≈ 3.24 µM); in test [2], 0.08 µg/mL (≈ 0.144 µM).
Broadly, the IC50 is the concentration that inhibits the measured activity by half. Read a high IC50 as lower potency. As for `COc1nc2ccc(Br)cc2cc1[C@H](c1ccccc1)[C@@](O)(CCN(C)C)c1cccc2ccccc12` (racemic; 1c), the IC50 in test [3] is 750 nM. Also, the MIC90 in test [1] was 44 µg/mL (≈ 79.2 µM); in [2], 7 µg/mL (≈ 12.6 µM).
The matching figures for `COc1nc2ccc(Br)cc2cc1[C@@H](c1ccccc1)[C@@](O)(CCN(C)C)c1cccc2ccccc12` (single isomer, unassigned) [BEDAQUILINE]: 25 nM, 8.8 µg/mL (≈ 15.8 µM) and 0.35 µg/mL (≈ 0.63 µM).
Regarding `CO[C@H]1/C=C/O[C@@]2(C)Oc3c(C)c(O)c4c(O)c(c(/C=N/N5CCN(C)CC5)c(O)c4c3C2=O)NC(=O)/C(C)=C\C=C\[C@H](C)[C@H](O)[C@@H](C)[C@@H](O)[C@@H](C)[C@H](OC(C)=O)[C@@H]1C` [RIFAMPIN], the MIC90 in test [1] (Mycobacterium tuberculosis, read-out: MIC90) worked out at 0.13 µg/mL (≈ 0.158 µM); in [2] (Mycolicibacterium smegmatis, ATCC 607, read-out: MIC90) it was 8.2 µg/mL (≈ 9.96 µM).
For the compound `COc1nc2ccc(Br)cc2cc1[C@@H](c1ccccc1)[C@@](O)(CCN(C)C)c1cccc2ccccc12`, the outcome in [4], in test [5], in [7], in [8] and in test [9] was Active. The inhibition entry in test [6] was “Dose-dependent effect”.
The term MIC denotes the smallest concentration in the dilution series that meets the test's criterion for growth inhibition. Higher therefore signals a less susceptible organism. A word on the Kd: it is a measure of binding affinity in units of concentration. Read a high Kd as weaker binding. Regarding `COc1nc2ccc(Br)cc2cc1[C@@H](c1ccccc1)[C@@](O)(CCN(C)C)c1cccc2ccccc12` [BEDAQUILINE], the MIC in test [10] turned out to be 0.5 µg/mL (≈ 0.9 µM); in test [12] it was 0.7 µg/mL (≈ 1.26 µM); in test [13], 0.03 µg/mL (≈ 0.054 µM); in [15], 0.003 µg/mL (≈ 0.0054 µM); in test [16], 0.003 µg/mL (≈ 0.0054 µM); in [18] it was 0.003 µg/mL (≈ 0.0054 µM). The MIC in test [19] is 0.003 µg/mL (≈ 0.0054 µM); in test [20], 0.05 µg/mL (≈ 0.09 µM); in [21] it was 0.003 µg/mL (≈ 0.0054 µM); in test [22], 0.4 µg/mL (≈ 0.72 µM); in test [23] it was 0.6 µg/mL (≈ 1.08 µM); in test [24], 0.003 µg/mL (≈ 0.0054 µM). Besides, inhibition in [3] was half-maximal at 2.5 nM (IC50). Moreover, the MIC90 amounted to 0.06 µg/mL (≈ 0.108 µM) in [1] and 0.004 µg/mL (≈ 0.0072 µM) in test [2]. In addition, the Ratio in test [11] and in [14] was above 100 each time. Besides, the Kd in test [17] turned out to be 1500 nM; at ATP synthase subunit c, 500 nM.
